Numbers after ± are expanded uncertainties.
Columns and labels:
[1] = Molar enthalpy of transition or fusion; conditions: Crystal; DSC

O=C([O][Sb]([c]1ccccc1)([c]1ccccc1)([c]1ccccc1)[c]1ccccc1)c1ccccc1 [tetraphenylantimony benzoate]
Conditions | Molar enthalpy of transition or fusion [kcal/mol]
[1] | 6.31 ± 0.263

101.33 kPa
Conditions | mass density [kg/m3] | molar entropy [J/K/mol]
5 K, Crystal, Small (less than 1 g) adiabatic calorimetry | – | 0.567 ± 0.052
10 K, Crystal, Small (less than 1 g) adiabatic calorimetry | – | 4.1 ± 0.3
15 K, Crystal, Small (less than 1 g) adiabatic calorimetry | – | 11.1 ± 0.83
20 K, Crystal, Small (less than 1 g) adiabatic calorimetry | – | 20.79 ± 0.57
25 K, Crystal, Small (less than 1 g) adiabatic calorimetry | – | 31.83 ± 0.85
30 K, Crystal, Small (less than 1 g) adiabatic calorimetry | – | 43.78 ± 1.1
35 K, Crystal, Small (less than 1 g) adiabatic calorimetry | – | 56.29 ± 1.4
40 K, Crystal, Small (less than 1 g) adiabatic calorimetry | – | 69.07 ± 1.7
45 K, Crystal, Small (less than 1 g) adiabatic calorimetry | – | 81.95 ± 1.6
50 K, Crystal, Small (less than 1 g) adiabatic calorimetry | – | 94.78 ± 1.8
60 K, Crystal, Small (less than 1 g) adiabatic calorimetry | – | 120.2 ± 2.3
70 K, Crystal, Small (less than 1 g) adiabatic calorimetry | – | 145.3 ± 2.7
80 K, Crystal, Small (less than 1 g) adiabatic calorimetry | – | 169.9 ± 3.2
90 K, Crystal, Small (less than 1 g) adiabatic calorimetry | – | 194.1 ± 3.7
100 K, Crystal, Small (less than 1 g) adiabatic calorimetry | – | 217.6 ± 4.1
120 K, Crystal, Small (less than 1 g) adiabatic calorimetry | – | 262.3 ± 4.9
140 K, Crystal, Small (less than 1 g) adiabatic calorimetry | – | 305.1 ± 5.7
160 K, Crystal, Small (less than 1 g) adiabatic calorimetry | – | 346.3 ± 6.5
180 K, Crystal, Small (less than 1 g) adiabatic calorimetry | – | 386.3 ± 7.2
200 K, Crystal, Small (less than 1 g) adiabatic calorimetry | – | 425.4 ± 7.9
220 K, Crystal, Small (less than 1 g) adiabatic calorimetry | – | 463.9 ± 8.6
240 K, Crystal, Small (less than 1 g) adiabatic calorimetry | – | 501.9 ± 9.3
260 K, Crystal, Small (less than 1 g) adiabatic calorimetry | – | 539.8 ± 10
273.15 K, Crystal, Small (less than 1 g) adiabatic calorimetry | – | 564.6 ± 10
280 K, Crystal, Small (less than 1 g) adiabatic calorimetry | – | 577.5 ± 11
298.15 K, Crystal, Small (less than 1 g) adiabatic calorimetry | – | 611.7 ± 11
298.15 K, Crystal, X-ray diffraction | 1438 ± 2 | –
300 K, Crystal, Small (less than 1 g) adiabatic calorimetry | – | 615.3 ± 11
320 K, Crystal, Small (less than 1 g) adiabatic calorimetry | – | 653.4 ± 12
340 K, Crystal, Small (less than 1 g) adiabatic calorimetry | – | 691 ± 47
360 K, Crystal, Small (less than 1 g) adiabatic calorimetry | – | 729 ± 51
380 K, Crystal, Small (less than 1 g) adiabatic calorimetry | – | 768 ± 53
400 K, Crystal, Small (less than 1 g) adiabatic calorimetry | – | 807 ± 56
420 K, Crystal, Small (less than 1 g) adiabatic calorimetry | – | 848 ± 58
437.5 K, Crystal, Small (less than 1 g) adiabatic calorimetry | – | 881 ± 58
437.5 K, Liquid, DSC | – | 940 ± 83
440 K, Liquid, DSC | – | 948 ± 83
460 K, Liquid, DSC | – | 989 ± 83
480 K, Liquid, DSC | – | 1030 ± 91

Conditions | Normal melting temperature [°C]
Crystal, DTA | 164.4 ± 1.1
